The values below are quoted from earlier work in patent US12252709B2, “Culture media for culturing pluripotent stem cells in suspension” (Accellta Ltd., priority 2016, dated 2025).

Where two headings read alike, the source gives them in different places.

Data set [1] concerns hESCs. Conditions: Matrigel matrix, seven days (Sato et al, 2004).
Data set [2] relates to hESCs. As to conditions: for background differentiation: MATRIGEL matrix.

On to `O=C1Nc2cc(Br)ccc2/C1=C1/Nc2ccccc2/C1=N\O` [BIO, 6-bromoindirubin-3′-oxime], for which the “maintenance of hESC properties” value in the data set on hESCs [1] is “maintained hESC properties”.

“bFGF: basic fibroblast growth factor, medium supplement”: the background differentiation in the data set with hESCs [2] (serum replacement, 40 ng/ml bFGF [Xu et al, 2005b]) is given as 28%.

B1: Flt-3 ligand: protein factor added to bFGF medium (protein, UniProt P49771 27-235, looked up)
Fms-related tyrosine kinase 3 …: TQDCSFQHSPISSDFAVKIRELSDYLLQDYPVTVASNLQDEELCGGLWRLVLAQRWMERLKTVAGSKMQGLLERVNTEIHFVTKCAFQPPPSCLRFVQTNISRLLQETSEQLVALKPWITRQNFSRCLELQCQPDSSTLPPPWSPRPLEATAPTAPQPPLLLLLLLPVGLLLLAAAWCLHWQRTRRRTPRPGEQVPPVPSPQDLLLVEH
B1: the differentiation with hESCs [2] (as before with 75 ng/ml of Flt-3 ligand added) is 20%.

B2: Noggin: protein factor used with 40 ng/ml bFGF (protein, UniProt Q13253 28-232, looked up)
Noggin: QHYLHIRPAPSDNLPLVDLIEHPDPIFDPKEKDLNETLLRSLLGGHYDPGFMATSPPEDRPGGGGGAAGGAEDLAELDQLLRQRPSGAMPSEIKGLEFSEGLAQGKKQRLSKKLRRKLQMWLWSQTFCPVLYAWNDLGSRFWPRYVKVGSCFSKRSCSVPEGMVCKPSKSVHLTVLRWRCQRRGGQRCGWIPIQYPIISECKCSC
Take B2: the background differentiation in the data set with hESCs [2] (40 ng/ml bFGF and 0.5 μg/ml Noggin [Xu et al, 2005]) was 10%.
